Patent US20240092784A1, “CONDENSED HETEROCYCLIC COMPOUND” (NISSAN CHEMICAL CORPORATION, priority 2020, published 2024)

These molecules were tested against human SPR (Homo sapiens (Human), UniProt P35270) (assay: Evaluation Example 2: Measurement of human SPR inhibitory activity (seven concentrations, sepiapterin absorbance at 420 nm)). Settings: Evaluation Example 2, seven concentrations 0.14 nM to 100 nM, 240 minutes at room temperature, read-out: IC50.
Assay type: biochemical
Summary of the method: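 His-tagged full-length human SPR (1-261) was expressed in E. coli and the tag removed. Enzyme at 150 ng/mL in 100 mM Tris-HCl pH 7.5/0.01% BSA was mixed with compound (0.14–100 nM, seven points), 120 μM sepiapterin and 160 μM NADPH, both as added-solution concentrations. After 240 min at room temperature, remaining sepiapterin was read at 420 nm to give percent inhibition.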

human SPR, sequence (P35270 whole entry): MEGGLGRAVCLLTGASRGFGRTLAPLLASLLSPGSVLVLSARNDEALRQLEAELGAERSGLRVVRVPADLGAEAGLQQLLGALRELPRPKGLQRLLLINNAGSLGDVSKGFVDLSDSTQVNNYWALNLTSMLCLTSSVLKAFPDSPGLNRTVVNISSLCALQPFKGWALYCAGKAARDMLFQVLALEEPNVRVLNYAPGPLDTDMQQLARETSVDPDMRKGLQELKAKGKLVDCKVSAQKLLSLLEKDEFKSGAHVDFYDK

Which IC50 does the source give for `COC[C@H]1COCCN1C(=O)/C=C/c1cnn2c(O)c(C(=O)NC3CC3)c(=O)n(CC3(F)CC3)c12` [Synthesis Example 382, (S,E)-N-cyclopropyl-4-((1-fluorocyclopropyl)methyl)-7-hydroxy-3-(3-(3-(methoxymethyl)morpholino)-3-oxoprop-1-en-1-yl)-5-oxo-4,5-dihydropyrazolo[1,5-a]pyrimidine-6-carboxamide] here?
Its IC50 is 0.87 nM.

How did the IC50 turn out when `COC[C@@H]1COCCN1C(=O)/C=C/c1cnn2c(O)c(C(=O)NC3CC3)c(=O)n(CC3(F)CC3)c12` [Synthesis Example 383, (R,E)-N-Cyclopropyl-4-((1-fluorocyclopropyl)methyl)-7-hydroxy-3-(3-(3-(methoxymethyl)morpholino)-3-oxoprop-1-en-1-yl)-5-oxo-4,5-dihydropyrazolo[1,5-a]pyrimidine-6-carboxamide] was run?
The IC50 was 0.82 nM.

With `CC1(Cn2c(=O)c(C(=O)NC3CC3)c(O)n3ncc(/C=C/C(=O)N4CCOCC4)c23)CCOCC1` [Synthesis Example 386, (E)-N-Cyclopropyl-7-hydroxy-4-((4-methyltetrahydro-2H-pyran-4-yl)methyl)-3-(3-morpholino-3-oxoprop-1-en-1-yl)-5-oxo-4,5-dihydropyrazolo[1,5-a]pyrimidine-6-carboxamide] as the molecule, how does the IC50 read?
The IC50 was 0.6 nM.

How did the IC50 turn out when `O=C(NC1CC1)c1c(O)n2ncc(/C=C/C(=O)N3CCOCC3)c2n(CC2CC2)c1=O` [Synthesis Example 387, (E)-N-Cyclopropyl-4-(cyclopropylmethyl)-7-hydroxy-3-(3-morpholino-3-oxoprop-1-en-1-yl)-5-oxo-4,5-dihydropyrazolo[1,5-a]pyrimidine-6-carboxamide] was run?
The IC50 was 0.86 nM.

With `CC(C)(F)Cn1c(=O)c(C(=O)NC2CC2)c(O)n2ncc(/C=C/C(=O)N3CCOCC3)c12` [Synthesis Example 390, (E)-N-Cyclopropyl-4-(2-fluoro-2-methylpropyl)-7-hydroxy-3-(3-morpholino-3-oxoprop-1-en-1-yl)-5-oxo-4,5-dihydropyrazolo[1,5-a]pyrimidine-6-carboxamide] as the molecule, how does the IC50 read?
Its IC50 is 0.71 nM.

`CC(C)(C)Cn1c(=O)c(C(=O)NC2CC2)c(O)n2nc3ncccc3c12` [Synthesis Example 391, N-Cyclopropyl-4-hydroxy-1-neopentyl-2-oxo-1,2-dihydropyrido[2′,3′:3,4]pyrazolo[1,5-a]pyrimidine-3-carboxamide] was tested. Which IC50 did it give?
Its IC50 is 0.92 nM.

How did the IC50 turn out when `CC(C)(C)Cn1c(=O)c(C(=O)NC2CC2)c(O)n2nc3nccnc3c12` [Synthesis Example 392, N-Cyclopropyl-7-hydroxy-10-neopentyl-9-oxo-9,10-dihydropyrazino[2′,3′:3,4]pyrazolo[1,5-a]pyrimidine-8-carboxamide] was run?
Its IC50 is 1.5 nM.

With `COc1ccc2c(n1)nn1c(O)c(C(=O)NC3CC3)c(=O)n(CC(C)(C)C)c21` [Synthesis Example 393, N-Cyclopropyl-4-hydroxy-8-methoxy-1-neopentyl-2-oxo-1,2-dihydropyrido[2′,3′:3,4]pyrazolo[1,5-a]pyrimidine-3-carboxamide] as the molecule, how does the IC50 read?
Its IC50 is 1.38 nM.

For `CC(C)(C)Cn1c(=O)c(C(=O)NC2CC2)c(O)n2nc3[nH]c(=O)ccc3c12` [Synthesis Example 394, N-Cyclopropyl-4-hydroxy-1-neopentyl-2,8-dioxo-1,2,7,8-tetrahydropyrido[2′,3′:3,4]pyrazolo[1,5-a]pyrimidine-3-carboxamide], which IC50 is on record?
The IC50 was 0.39 nM.

How did the IC50 turn out when `CC(C)(C)Cn1c(=O)c(C(=O)NC2CC2)c(O)n2nc3[nH]ccc3c12` [Synthesis Example 395, N-Cyclopropyl-7-hydroxy-4-neopentyl-5-oxo-4,5-dihydro-1H-pyrrolo[2′,3′:3,4]pyrazolo[1,5-a]pyrimidine-6-carboxamide] was run?
Its IC50 is 0.89 nM.

With `CC(C)(C)Cn1c(=O)c(C(=O)NC2CC2)c(O)n2nc3c(c12)CCN3` [Synthesis Example 396, N-Cyclopropyl-7-hydroxy-4-neopentyl-5-oxo-2,3,4,5-tetrahydro-1H-pyrrolo[2′,3′:3,4]pyrazolo[1,5-a]pyrimidine-6-carboxamide] as the molecule, how does the IC50 read?
Its IC50 is 1.35 nM.

Which IC50 does the source give for `CC(C)(C)Cn1c(=O)c(C(=O)NC2CC2)c(O)n2nc3c(c12)CCN3C(N)=O` [Synthesis Example 397, N6-Cyclopropyl-7-hydroxy-4-neopentyl-5-oxo-2,3,4,5-tetrahydro-1H-pyrrolo[2′,3′:3,4]pyrazolo[1,5-a]pyrimidine-1,6-dicarboxamide] here?
Its IC50 is 1.75 nM.

Which IC50 does the source give for `CC(C)(C)Cn1c(=O)c(C(=O)NC2CC2)c(O)n2nc3c(c12)CCN3CC(F)(F)F` [Synthesis Example 398, N-Cyclopropyl-7-hydroxy-4-neopentyl-5-oxo-1-(2,2,2-trifluoroethyl)-2,3,4,5-tetrahydro-1H-pyrrolo[2′,3′:3,4]pyrazolo[1,5-a]pyrimidine-6-carboxamide] here?
The IC50 was 6.08 nM.

Which IC50 does the source give for `CC(C)Cn1c(=O)c(C(=O)NC2CC2)c(O)n2nc3[nH]ccc3c12` [Synthesis Example 399, N-Cyclopropyl-7-hydroxy-4-isobutyl-5-oxo-4,5-dihydro-1H-pyrrolo[2′,3′:3,4]pyrazolo[1,5-a]pyrimidine-6-carboxamide] here?
Its IC50 is 1.56 nM.

With `CC(C)(C)Cn1c(=O)c(C(=O)NC2CC2)c(O)n2nc3c(c12)COC(=O)N3` [Synthesis Example 400, N-Cyclopropyl-8-hydroxy-5-neopentyl-2,6-dioxo-1,2,5,6-tetrahydro-4H-pyrimido[1′,2′:1,5]pyrazolo[3,4-d][1,3]oxazine-7-carboxamide] as the molecule, how does the IC50 read?
Its IC50 is 0.7 nM.

`CC(C)(C)Cn1c(=O)c(C(=O)NC2CC2)c(O)n2nc3c(c12)CCOC(=O)N3` [Synthesis Example 401, N-Cyclopropyl-9-hydroxy-6-neopentyl-2,7-dioxo-1,2,4,5,6,7-hexahydropyrimido[1′,2′:1,5]pyrazolo[3,4-d][1,3]oxazepine-8-carboxamide] was tested. Which IC50 did it give?
Its IC50 is 0.56 nM.

How did the IC50 turn out when `CC(C)(C)Cn1c(=O)c(C(=O)NC2CC2)c(O)n2nc3c(c12)CC(=O)N3` [Synthesis Example 402, N-Cyclopropyl-7-hydroxy-4-neopentyl-2,5-dioxo-2,3,4,5-tetrahydro-1H-pyrrolo[2′,3′:3,4]pyrazolo[1,5-a]pyrimidine-6-carboxamide] was run?
Its IC50 is 0.63 nM.

`CC(C)(C)Cn1c(=O)c(C(=O)NC2CC2)c(O)n2nc3c(c12)CCC(=O)N3` [Synthesis Example 403, N-Cyclopropyl-4-hydroxy-1-neopentyl-2,8-dioxo-1,2,7,8,9,10-hexahydropyrido[2′,3′:3,4]pyrazolo[1,5-a]pyrimidine-3-carboxamide] was tested. Which IC50 did it give?
Its IC50 is 0.61 nM.

With `CC(C)Cn1c(=O)c(C(=O)NC2CC2)c(O)n2nc3c(c12)CCC(=O)N3` [Synthesis Example 404, N-Cyclopropyl-4-hydroxy-1-isobutyl-2,8-dioxo-1,2,7,8,9,10-hexahydropyrido[2′,3′:3,4]pyrazolo[1,5-a]pyrimidine-3-carboxamide] as the molecule, how does the IC50 read?
Its IC50 is 0.63 nM.

For `CC(C)(C)Cn1c(=O)c(C(=O)NC2CC2)c(O)n2nc3c(c12)CN(C1CCOCC1)C(=O)N3` [Synthesis Example 405, N-Cyclopropyl-8-hydroxy-5-neopentyl-2,6-dioxo-3-(tetrahydro-2H-pyran-4-yl)-1,2,3,4,5,6-hexahydropyrazolo[1,5-a:3,4-d′]dipyrimidine-7-carboxamide], which IC50 is on record?
Its IC50 is 0.77 nM.

Which IC50 does the source give for `CN1Cc2c(nn3c(O)c(C(=O)NC4CC4)c(=O)n(CC(C)(C)C)c23)NC1=O` [Synthesis Example 406, N-Cyclopropyl-8-hydroxy-3-methyl-5-neopentyl-2,6-dioxo-1,2,3,4,5,6-hexahydropyrazolo[1,5-a:3,4-d′]dipyrimidine-7-carboxamide] here?
Its IC50 is 0.93 nM.

How did the IC50 turn out when `CC(C)(C)Cn1c(=O)c(C(=O)NC2CC2)c(O)n2nc3c(c12)CN(C1CCC(F)(F)CC1)C(=O)N3` [Synthesis Example 407, N-Cyclopropyl-3-(4,4-difluorocyclohexyl)-8-hydroxy-5-neopentyl-2,6-dioxo-1,2,3,4,5,6-hexahydropyrazolo[1,5-a:3,4-d′]dipyrimidine-7-carboxamide] was run?
The IC50 was 1.23 nM.

Which IC50 does the source give for `CC(C)(C)Cn1c(=O)c(C(=O)NC2CC2)c(O)n2nc3c(c12)CN(C1CC1)C(=O)N3` [Synthesis Example 408, N,3-Dicyclopropyl-8-hydroxy-5-neopentyl-2,6-dioxo-1,2,3,4,5,6-hexahydropyrazolo[1,5-a:3,4-d′]dipyrimidine-7-carboxamide] here?
Its IC50 is 0.83 nM.

With `CC(C)(C)Cn1c(=O)c(C(=O)NC2CC2)c(O)n2nc3c(c12)CN(CC1CCOCC1)C(=O)N3` [Synthesis Example 409, N-Cyclopropyl-8-hydroxy-5-neopentyl-2,6-dioxo-3-((tetrahydro-2H-pyran-4-yl)methyl)-1,2,3,4,5,6-hexahydropyrazolo[1,5-a:3,4-d′]dipyrimidine-7-carboxamide] as the molecule, how does the IC50 read?
Its IC50 is 0.75 nM.

With `CC(C)(C)Cn1c(=O)c(C(=O)NC2CC2)c(O)n2nc3c(c12)CN(C1CC(F)(F)C1)C(=O)N3` [Synthesis Example 410, N-Cyclopropyl-3-(3,3-difluorocyclobutyl)-8-hydroxy-5-neopentyl-2,6-dioxo-1,2,3,4,5,6-hexahydropyrazolo[1,5-a:3,4-d′]dipyrimidine-7-carboxamide] as the molecule, how does the IC50 read?
The IC50 was 1.5 nM.

How did the IC50 turn out when `CC(C)(C)Cn1c(=O)c(C(=O)NC2CC2)c(O)n2nc(N)c(/C=C/C(=O)N3CCOCC3)c12` [Synthesis Example 411, (E)-2-Amino-N-cyclopropyl-7-hydroxy-3-(3-morpholino-3-oxoprop-1-en-1-yl)-4-neopentyl-5-oxo-4,5-dihydropyrazolo[1,5-a]pyrimidine-6-carboxamide] was run?
Its IC50 is 0.65 nM.

How did the IC50 turn out when `CCOC(=O)/C=C/c1c(NC(=O)OC(C)(C)C)nn2c(O)c(C(=O)NC3CC3)c(=O)n(CC(C)C)c12` [Synthesis Example 412, Ethyl (E)-3-(2-((tert-butoxycarbonyl)amino)-6-(cyclopropylcarbamoyl)-7-hydroxy-4-isobutyl-5-oxo-4,5-dihydropyrazolo[1,5-a]pyrimidin-3-yl)acrylate] was run?
The IC50 was 1.85 nM.
